Earlier results on one molecule are cited in patent US20020090642A1, “METHODS FOR DETERMINING THE PROGNOSIS OF BREAST CANCER USING ANTIBODIES SPECIFIC FOR THYMIDYLATE SYNTHASE” (priority 1995, published 2002).

This data set deals with TS. To be noted: 24 hours post-fluorouracil therapy, tumor biopsy samples.

For `O=c1[nH]cc(F)c(=O)[nH]1` [fluorouracil], the “increase in TS” value is recorded as 2- to 6 fold.
